Measured values taken from PubChem BioAssay (NCI).
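All cell lines were grown in 96-well plates and treated with compound for 48 hours. Definition used: TGI = concentration required for complete inhibition of growth.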

Columns and labels:
Experiment in all cases: inhibition of tumour cell growth, NCI panel, 48 h
786-0 renal = tested on: 786-0 renal
A498 renal = tested on: A498 renal
A549 NSCLC = tested on: A549 NSCLC
ACHN renal = tested on: ACHN renal
CAKI-1 renal = tested on: CAKI-1 renal
CCRF-CEM leukemia = tested on: CCRF-CEM leukemia
COLO 205 colon = tested on: COLO 205 colon
DU-145 prostate = tested on: DU-145 prostate
EKVX NSCLC = tested on: EKVX NSCLC
HCC-2998 colon = tested on: HCC-2998 colon
HCT-116 colon = tested on: HCT-116 colon
HCT-15 colon = tested on: HCT-15 colon
HL-60(TB) leukemia = tested on: HL-60(TB) leukemia
HOP-62 NSCLC = tested on: HOP-62 NSCLC
HOP-92 NSCLC = tested on: HOP-92 NSCLC
HS 578T breast = tested on: HS 578T breast
HT29 colon = tested on: HT29 colon
IGROV1 ovarian = tested on: IGROV1 ovarian
K-562 leukemia = tested on: K-562 leukemia
KM12 colon = tested on: KM12 colon
LOX IMVI melanoma = tested on: LOX IMVI melanoma
M14 melanoma = tested on: M14 melanoma
MALME-3M melanoma = tested on: MALME-3M melanoma
MCF7 breast = tested on: MCF7 breast
MDA-MB-231 breast = tested on: MDA-MB-231 breast
MDA-MB-435 = tested on: MDA-MB-435
MDA-N = tested on: MDA-N
MOLT-4 leukemia = tested on: MOLT-4 leukemia
NCI-H226 lung = tested on: NCI-H226 lung
NCI-H23 lung = tested on: NCI-H23 lung
NCI-H460 lung = tested on: NCI-H460 lung
NCI/ADR-RES ovarian = tested on: NCI/ADR-RES ovarian
OVCAR-3 ovarian = tested on: OVCAR-3 ovarian
OVCAR-4 ovarian = tested on: OVCAR-4 ovarian
OVCAR-5 ovarian = tested on: OVCAR-5 ovarian
OVCAR-8 ovarian = tested on: OVCAR-8 ovarian
PC-3 prostate = tested on: PC-3 prostate
RPMI-8226 leukemia = tested on: RPMI-8226 leukemia
RXF 393 renal = tested on: RXF 393 renal
SF-268 CNS = tested on: SF-268 CNS
SF-295 CNS = tested on: SF-295 CNS
SF-539 CNS = tested on: SF-539 CNS
SK-MEL-28 melanoma = tested on: SK-MEL-28 melanoma
SK-MEL-5 melanoma = tested on: SK-MEL-5 melanoma
SK-OV-3 ovarian = tested on: SK-OV-3 ovarian
SN12C renal = tested on: SN12C renal
SNB-19 CNS = tested on: SNB-19 CNS
SNB-75 CNS = tested on: SNB-75 CNS
SR leukemia = tested on: SR leukemia
SW-620 colon = tested on: SW-620 colon
T-47D breast = tested on: T-47D breast
TK-10 renal = tested on: TK-10 renal
U251 CNS = tested on: U251 CNS
UACC-257 melanoma = tested on: UACC-257 melanoma
UACC-62 melanoma = tested on: UACC-62 melanoma
UO-31 renal = tested on: UO-31 renal
NCI-H522 lung = tested on: NCI-H522 lung
SK-MEL-2 melanoma = tested on: SK-MEL-2 melanoma

CCOC(=O)NC(Nc1ncn(C(NC(=O)OCC)(C(F)(F)F)C(F)(F)F)n1)(C(F)(F)F)C(F)(F)F
TGI (786-0 renal): > 100 µM
TGI (A498 renal): > 100 µM
TGI (A549 NSCLC): > 100 µM
TGI (ACHN renal): > 100 µM
TGI (CAKI-1 renal): > 100 µM
TGI (CCRF-CEM leukemia): > 100 µM
TGI (COLO 205 colon): > 100 µM
TGI (DU-145 prostate): > 100 µM
TGI (EKVX NSCLC): > 100 µM
TGI (HCC-2998 colon): > 100 µM
TGI (HCT-116 colon): > 100 µM
TGI (HCT-15 colon): > 100 µM
TGI (HL-60(TB) leukemia): > 100 µM
TGI (HOP-62 NSCLC): > 100 µM
TGI (HOP-92 NSCLC): > 100 µM
TGI (HS 578T breast): > 100 µM
TGI (HT29 colon): > 100 µM
TGI (IGROV1 ovarian): > 100 µM
TGI (K-562 leukemia): > 100 µM
TGI (KM12 colon): > 100 µM
TGI (LOX IMVI melanoma): > 100 µM
TGI (M14 melanoma): > 100 µM
TGI (MALME-3M melanoma): > 100 µM
TGI (MCF7 breast): > 100 µM
TGI (MDA-MB-231 breast): > 100 µM
TGI (MDA-MB-435): > 100 µM
TGI (MDA-N): > 100 µM
TGI (MOLT-4 leukemia): > 100 µM
TGI (NCI-H226 lung): > 100 µM
TGI (NCI-H23 lung): > 100 µM
TGI (NCI-H460 lung): > 100 µM
TGI (NCI/ADR-RES ovarian): > 100 µM
TGI (OVCAR-3 ovarian): > 100 µM
TGI (OVCAR-4 ovarian): > 100 µM
TGI (OVCAR-5 ovarian): > 100 µM
TGI (OVCAR-8 ovarian): > 100 µM
TGI (PC-3 prostate): > 100 µM
TGI (RPMI-8226 leukemia): > 100 µM
TGI (RXF 393 renal): > 100 µM
TGI (SF-268 CNS): > 100 µM
TGI (SF-295 CNS): > 100 µM
TGI (SF-539 CNS): > 100 µM
TGI (SK-MEL-28 melanoma): > 100 µM
TGI (SK-MEL-5 melanoma): > 100 µM
TGI (SK-OV-3 ovarian): > 100 µM
TGI (SN12C renal): > 100 µM
TGI (SNB-19 CNS): > 100 µM
TGI (SNB-75 CNS): > 100 µM
TGI (SR leukemia): > 100 µM
TGI (SW-620 colon): > 100 µM
TGI (T-47D breast): > 100 µM
TGI (TK-10 renal): > 100 µM
TGI (U251 CNS): > 100 µM
TGI (UACC-257 melanoma): > 100 µM
TGI (UACC-62 melanoma): > 100 µM
TGI (UO-31 renal): 30.3 µM

CCCC[C@@H](C)/C=C1\CN2CCC[C@H]2[C@@](C)(O)[C@@H]1O
TGI (786-0 renal): > 100 µM
TGI (A498 renal): > 100 µM
TGI (A549 NSCLC): > 100 µM
TGI (ACHN renal): > 100 µM
TGI (CAKI-1 renal): 71.2 µM
TGI (CCRF-CEM leukemia): > 100 µM
TGI (COLO 205 colon): > 100 µM
TGI (DU-145 prostate): 60.4 µM
TGI (EKVX NSCLC): > 100 µM
TGI (HCC-2998 colon): > 100 µM
TGI (HCT-15 colon): > 100 µM
TGI (HL-60(TB) leukemia): 11 µM
TGI (HOP-62 NSCLC): > 100 µM
TGI (HOP-92 NSCLC): 73.6 µM
TGI (HS 578T breast): > 100 µM
TGI (HT29 colon): > 100 µM
TGI (IGROV1 ovarian): > 100 µM
TGI (K-562 leukemia): > 100 µM
TGI (KM12 colon): > 100 µM
TGI (LOX IMVI melanoma): > 100 µM
TGI (M14 melanoma): > 100 µM
TGI (MALME-3M melanoma): > 100 µM
TGI (MCF7 breast): > 100 µM
TGI (MDA-MB-231 breast): > 100 µM
TGI (MDA-MB-435): > 100 µM
TGI (MDA-N): > 100 µM
TGI (MOLT-4 leukemia): > 100 µM
TGI (NCI-H226 lung): > 100 µM
TGI (NCI-H23 lung): > 100 µM
TGI (NCI-H460 lung): > 100 µM
TGI (NCI-H522 lung): > 100 µM
TGI (NCI/ADR-RES ovarian): > 100 µM
TGI (OVCAR-3 ovarian): > 100 µM
TGI (OVCAR-4 ovarian): > 100 µM
TGI (OVCAR-5 ovarian): > 100 µM
TGI (OVCAR-8 ovarian): > 100 µM
TGI (PC-3 prostate): > 100 µM
TGI (RPMI-8226 leukemia): > 100 µM
TGI (RXF 393 renal): 38.1 µM
TGI (SF-268 CNS): > 100 µM
TGI (SF-295 CNS): > 100 µM
TGI (SF-539 CNS): > 100 µM
TGI (SK-MEL-2 melanoma): > 100 µM
TGI (SK-MEL-28 melanoma): > 100 µM
TGI (SK-MEL-5 melanoma): > 100 µM
TGI (SK-OV-3 ovarian): > 100 µM
TGI (SNB-19 CNS): > 100 µM
TGI (SNB-75 CNS): 85.1 µM
TGI (SR leukemia): > 100 µM
TGI (SW-620 colon): > 100 µM
TGI (T-47D breast): > 100 µM
TGI (TK-10 renal): > 100 µM
TGI (U251 CNS): > 100 µM
TGI (UACC-257 melanoma): > 100 µM
TGI (UACC-62 melanoma): > 100 µM
TGI (UO-31 renal): > 100 µM
